Results: patent US20050005311A1, “High throughput screening for cancer genes” (priority 2003, published 2005)

Tested on: l(2)gl primary tumor
Type: in vivo, Drosophila melanogaster
Procedure: Adult hosts injected with l(2)gl/l(2)gl larval tissue were orally administered drugs for 21 days after injection. Hosts were treated with 0 or 0.56 μg/ml of LY294002 (reduction of tumor size to 7% of untreated) and 0 or […] PD98059 (no effect).
Brain lobes from armadillo-lacZ marked larvae; were dissected and cut into halves. Each fragment was injected into the abdomen of a βgal^ml (a mutant that lacks endogenous […] expression) adult female using a 33 gauge needle, where it was cultured for 21 days at room temperature. Hosts that had received transplants were opened along the ventral midline and fixed in 3.7% formaldehyde in phosphate buffered saline (PBS). β-galactosidase in the donor tissue was detected by staining overnight at 37° C. in 0.02% X-gal in 10 mM Na pyrophosphate, 0.15 M NaCl, […], 5 mM ferricyanide, and 5 mM K ferrocyanide (Specialty Media). Secondary tumors were defined as β-galactosidase-marked cells distinct from the :implanted tumor, which was defined as the primary tumor.
The levels of Mothers against dpp (Mad), P13K, ERK, Akt, and cleaved caspase 3 were studied in brain extracts from l(2)gl/l(2)gl, l(2)gl/l(2)gl; sema-5c/sema-5c, and wild-type larvae. P13K was reduced in l(2)gl/l(2)gl;sema-5c/sema-5c compared to l(2)gl/l(2)gl. To further study the role of P13K in l(2)gl tumors, the P13K inhibitor, LY294002, was orally administered to Drosophila adults injected with l(2)gl/l(2)gl tissue.
Adult βgal^nl hosts transplanted with armadillo-lacZ marked l(2)gl brain fragments were treated with 0; 0.556; 5.56; and 55.6 μg/ml of the PI-3 K inhibitor, LY294002 (Sigma), by adding drug to fly media. Flies were cultured for 21 days on drug-containing food and stained for the presence of β-galactosidase. Primary tumor size was determined by counting the cells dissociated from tumors. See, e.g., FIG. 5.

SMILES	primary tumor size (% of untreated) (adult hosts injected with l(2)gl/l(2)gl larval tissue, oral, 0.56 μg/ml, 21 days after injection (FIG. 5))	adverse effects to the hosts (in vivo, po)	primary tumor size (orally administered to Drosophila adults injected with l(2)gl/l(2)gl tissue, dose not given)	effect on l(2)gl primary tumor growth (adult hosts injected with l(2)gl/l(2)gl larval tissue, oral, 0.56 μ/ml, 21 days after injection (FIG. 5))
O=c1cc(N2CCOCC2)oc2c(-c3ccccc3)cccc12 [LY294002]	7 % of untreated	without adverse effects	7 % of untreated hosts	–
COc1cccc(-c2cc(=O)c3ccccc3o2)c1N [PD98059]	–	–	–	no effect
